Source: paper PMC8053989 (Proceedings of the National Academy of Sciences of the …, 2021)
Read-outs that look alike come from different tables or passages of the source.

What was measured:
SARS-CoV-2 replicon [1] = assay: microbe, parasite or virus in culture; assay type: cell-based; conditions: Huh-7.5 cells
SARS-CoV-2 replicon [2] = assay: microbe, parasite or virus in culture; assay type: cell-based; conditions: Calu-1 cells, compound alone
SARS-CoV-2 replicon [3] = assay: microbe, parasite or virus in culture; assay type: cell-based
SARS-CoV-2 replicon [4] = assay: microbe, parasite or virus in culture; assay type: cell-based; conditions: for effect of p-gp inhibitors on potency: in the presence of CP-100356 or elacridar
SARS-CoV-2 replicon [5] = assay: microbe, parasite or virus in culture; assay type: cell-based; conditions: A549 cells, compound alone
SARS-CoV-2 replicon [6] = assay type: cell-based; conditions: concentrations up to 2 µM
293T cells = assay: Cytotoxicity assay (CellTiter-Glo) in replicon-transfected cells; conditions: range of concentrations tested
[7] = test system: wild-type (wt) SARS-CoV-2; parameters: method as in doi:10.1101/2020.08.28.272880; conditions: ACE2 stably transfected A549 cells; read-out: EC50 against wild-type SARS-CoV-2 infection; cited from earlier work
[8] = Severe acute respiratory syndrome coronavirus 2, Huh7.5
[9] = Severe acute respiratory syndrome coronavirus 2
[10] = Severe acute respiratory syndrome coronavirus 2, HEK-293T, 30 h, read-out: EC50
[11] = Severe acute respiratory syndrome coronavirus 2, Vero cells, compound alone

Row | SMILES | EC50 (SARS-CoV-2 replicon [2]; [9]) [µM] | EC50 (SARS-CoV-2 replicon [3]; [10]) [µM] | EC50 (SARS-CoV-2 replicon [4]; [11]) [µM] | EC50 (SARS-CoV-2 replicon [5]; [9]) [µM] | effect of p-gp inhibitors on potency (SARS-CoV-2 replicon [4]; Vero cells) | further results
1 | Cc1cccc(/C=N/Nc2cc(N3CCOCC3)nc(OCCc3ccccn3)n2)c1 [Apilimod] | > 42 |  |  |  |  | EC50 (SARS-CoV-2 replicon [1]; [8]): > 42 µM
2 | CN(C)C(=O)COC(=O)Cc1ccc(OC(=O)c2ccc(NC(=N)N)cc2)cc1 [Camostat] | > 42 | > 42 | > 42 | > 42 |  | 
3 | COc1cc2c(cc1OC)CN(CCc1ccc(NC(=O)c3cccc4c(=O)c5cccc(OC)c5[nH]c34)cc1)CC2 [Elacridar] | > 8.4 |  | > 4.67 | > 4.67 |  | antiviral activity when tested alone (SARS-CoV-2 replicon [6]): No antiviral activities were observed
4 | CC(C)C[C@H](NC(=O)OCc1ccccc1)C(=O)N[C@H](C=O)C[C@@H]1CCNC1=O [GC373] |  |  |  |  | slight increase of the activities | EC50 (SARS-CoV-2 replicon [3]; read-out: EC50): 0.0203 ± 0.0053 µM; EC50 (SARS-CoV-2 replicon [4]; Vero cells, compound alone): 0.309 ± 0.043 µM; EC50 (SARS-CoV-2 replicon [2]): 0.0301 ± 0.0058 µM; EC50 (SARS-CoV-2 replicon [5]): 0.539 ± 0.069 µM
5 | CC(C)C[C@H](NC(=O)OCc1ccccc1)C(=O)N[C@@H](CC1CCNC1=O)C(O)S(=O)(=O)O (stereo partly drawn) [GC376] |  |  |  |  |  | EC50 (SARS-CoV-2 replicon [3]; read-out: EC50): 0.0208 ± 0.0054 µM; EC50 (SARS-CoV-2 replicon [3]; read-out: potency (EC50) in inhibiting SARS-CoV-2 replicon replication, percent GFP signal): 0.022 µM; EC50 (SARS-CoV-2 replicon [3]; read-out: potency (EC50) in inhibiting SARS-CoV-2 replicon replication, percent luciferase activity): 0.0292 µM; EC50 (SARS-CoV-2 replicon [4]; Vero cells, compound alone): 0.237 ± 0.074 µM; EC50 (SARS-CoV-2 replicon [1]): 0.0194 ± 0.0049 µM; EC50 (SARS-CoV-2 replicon [2]): 0.0198 ± 0.002 µM; EC50 (SARS-CoV-2 replicon [5]): 0.57 ± 0.182 µM
6 | CC(C)C[C@H](NC(=O)OCc1ccccc1)C(=O)N[C@@H](C[C@@H]1CCNC1=O)C(O)S(=O)(=O)[O-].[Na+] (stereo partly drawn) [GC376] |  |  |  |  | slight increase of the activities | cytotoxicity (293T cells): No cytotoxicity was detected
7 | CCC(CC)COC(=O)[C@H](C)N[P@](=O)(OC[C@H]1O[C@@](C#N)(c2ccc3c(N)ncnn23)[C@H](O)[C@@H]1O)Oc1ccccc1 [GS-5734] | 0.0315 ± 0.023 | 0.0156 ± 0.0051 | 2.24 | 0.184 |  | EC50 (SARS-CoV-2 replicon [1]; [8]): 0.0189 µM; EC50 [7]: 0.442 µM
8 | N#C[C@@]1(c2ccc3c(N)ncnn23)O[C@H](CO)[C@@H](O)[C@H]1O [GS-441524] | 1.33 | 0.603 ± 0.131 | 0.302 ± 0.02 | 1.47 |  | EC50 (SARS-CoV-2 replicon [3]; Severe acute respiratory syndrome coronavirus 2, HEK-293T, 30 h, read-out: potency (EC50) in inhibiting SARS-CoV-2 replicon replication, percent GFP signal): 0.645 µM; EC50 (SARS-CoV-2 replicon [3]; Severe acute respiratory syndrome coronavirus 2, HEK-293T, 30 h, read-out: potency (EC50) in inhibiting SARS-CoV-2 replicon replication, percent luciferase activity): 0.503 µM; EC50 (SARS-CoV-2 replicon [1]; [8]): 1.03 µM; cytotoxicity (293T cells): No cytotoxicity was detected
9 | CC(C)(C)NC(=O)N[C@H](C(=O)N1C[C@H]2[C@@H]([C@H]1C(=O)NC(CC1CCC1)C(=O)C(N)=O)C2(C)C)C(C)(C)C (stereo partly drawn) [MK-3034] | 4.79 | 3.55 | 16.6 | 19.9 | slight increase of the activities | 
10 | N=C(N)c1ccc2cc(OC(=O)c3ccc(N=C(N)N)cc3)ccc2c1 [Nafamostat] | > 42 | > 42 |  | > 42 |  | EC50 (SARS-CoV-2 replicon [4]; Severe acute respiratory syndrome coronavirus 2, Vero C1008, Vero E6 cells (so in the source)): > 42 µM
11 | COc1cccc2[nH]c(C(=O)N[C@@H](CC(C)C)C(=O)N[C@@H](C[C@@H]3CCNC3=O)C(=O)CO)cc12 [PF-00835231] |  |  |  |  | dramatically increased the potency | EC50 (SARS-CoV-2 replicon [3]; read-out: EC50): 0.0752 ± 0.0191 µM; EC50 (SARS-CoV-2 replicon [4]; Vero cells, compound alone): 2.19 µM; EC50 (SARS-CoV-2 replicon [1]): 0.175 ± 0.056 µM; EC50 (SARS-CoV-2 replicon [2]): 0.0247 ± 0.0038 µM; EC50 (SARS-CoV-2 replicon [5]): 0.0763 ± 0.0162 µM
12 | CC(C)C[C@H](NC(=O)c1cc2ccccc2o1)C(=O)N[C@H]1CC[C@@H](C)N(S(=O)(=O)c2ccccn2)CC1=O [Relacatib] | > 42 | > 42 | > 42 | > 42 |  | 
